Ki data for 26 compounds are collected here from patent US10590128B2, “6,7,8,9-tetrahydro-5H-pyrido[2,3-d]azepine dopamine D3 ligands” (Pfizer Inc., priority 2016, dated 2020).

Each structure is given as a SMILES string. pKi: −log10 of the molar value. Where only a bound is given, the exact number is not on record here.

Experiment [1] deals with human dopamine D2 receptor (hD2R) (Homo sapiens, UniProt P14416). Nature of the experiment: Human D2 receptor binding assay ([^3H]-Spiperone). Conditions: CHO cells expressing hD2R, geometric mean of 2-5 determinations unless marked b (single determination). The method, then: (§1) Human D2 Receptor and Human D3 Receptor Binding Assays:
(§2) These determined ligand and tissue concentrations were utilized in time course studies to determine linearity and equilibrium conditions for binding. […] The hD2R assay buffer contains 50 mM Tris (pH 7.4 @ 37° C.), 100 mM NaCl and 1 mM MgCl2. The hD3R assay buffer consists of 50 mM Tris (pH 7.4 at 37° C.), 120 mM NaCl, 5 mM MgCl2, 5 mM KCl and 2 mM CaCl2. Competitive binding experiments were initiated by the addition of 200 μL of the respective cell homogenate to 96-well plates containing […] test drugs (10 concentrations using ½ log dilutions) and 50 μL of ^3H-radioligand for a final volume of 250 μL. Non-specific binding was determined by radioligand binding in the presence of a saturating concentration of Haldol (10 μM). After the 20 minute incubation at 37° C., assay samples were rapidly filtered through Unifilter-96 GF/B PEI-coated filter plates and rinsed with ice-cold 50 mM Tris buffer (pH 7.4 at 4° C.). […] The IC50 value (concentration at which 50% inhibition of specific binding occurs) was calculated by linear regression of the concentration-response data in ActivityBase. Ki values were then calculated according to the Cheng-Prusoff equation:
(§3) [formula] where [L]=concentration of free radioligand and Kd=dissociation constant of radioligand for D3 receptor or D2 receptor.

Experiment [2] concerns the target human dopamine D3 receptor (hD3R) (Homo sapiens, UniProt P35462). Nature of the experiment: Human D3 receptor binding assay ([^3H]-7-OH-DPAT). Conditions: CHO cells expressing hD3R, geometric mean of 2-5 determinations unless marked b (single determination), read-out: hD3 in CHO cells Ki. How it is done: as §1, §2, §3

In general, pKi refers to the Ki on a negative log10 scale, so that one unit is a factor of ten.

human dopamine D3 receptor (hD3R), sequence (P35462 whole entry): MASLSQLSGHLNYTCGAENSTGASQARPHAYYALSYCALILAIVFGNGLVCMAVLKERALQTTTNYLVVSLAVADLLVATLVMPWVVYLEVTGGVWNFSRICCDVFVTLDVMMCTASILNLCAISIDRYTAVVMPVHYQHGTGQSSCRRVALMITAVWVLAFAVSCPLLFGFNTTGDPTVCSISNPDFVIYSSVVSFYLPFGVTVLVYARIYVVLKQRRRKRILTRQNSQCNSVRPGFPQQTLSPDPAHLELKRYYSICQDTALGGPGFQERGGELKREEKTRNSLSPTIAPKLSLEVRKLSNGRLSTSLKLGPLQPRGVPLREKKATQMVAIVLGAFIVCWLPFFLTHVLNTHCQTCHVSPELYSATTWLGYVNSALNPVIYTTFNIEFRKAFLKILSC
human dopamine D2 receptor (hD2R), sequence (P14416 whole entry): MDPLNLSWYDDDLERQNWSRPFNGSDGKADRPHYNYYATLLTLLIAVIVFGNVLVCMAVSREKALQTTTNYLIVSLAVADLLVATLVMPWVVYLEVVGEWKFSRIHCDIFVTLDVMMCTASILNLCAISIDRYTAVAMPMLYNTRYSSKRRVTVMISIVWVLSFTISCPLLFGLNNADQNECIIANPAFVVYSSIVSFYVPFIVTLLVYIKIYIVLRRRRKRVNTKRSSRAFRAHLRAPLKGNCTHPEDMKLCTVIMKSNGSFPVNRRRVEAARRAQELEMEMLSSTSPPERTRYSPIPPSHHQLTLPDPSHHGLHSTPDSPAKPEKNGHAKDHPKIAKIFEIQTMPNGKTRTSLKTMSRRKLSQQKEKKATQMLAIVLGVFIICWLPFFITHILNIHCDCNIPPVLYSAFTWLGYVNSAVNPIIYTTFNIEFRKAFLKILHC

Consider `COc1nc2c(cc1NS(=O)(=O)c1ccc([C@H]3CCCCO3)cc1)CCNCC2` [Example 9, N-(2-Methoxy-6,7,8,9-tetrahydro-5H-pyrido[2,3-d]azepin-3-yl)-4-[(2R)-tetrahydro-2H-pyran-2-yl]benzenesulfonamide], for which the pKi was 5.90 in experiment [1] and 8.11 in experiment [2].
Turning to `COc1nc2c(cc1NS(=O)(=O)c1ccc([C@]3(F)C[C@H](OC)C3)cc1)CCN(C)CC2` [Example 10, 4-(trans-1-Fluoro-3-methoxycyclobutyl)-N-(2-methoxy-7-methyl-6,7,8,9-tetrahydro-5H-pyrido[2,3-d]azepin-3-yl)benzenesulfonamide], the negative-log Ki (pKi) was 7.00 in experiment [1] and 8.94 in experiment [2].
`COc1nc2c(cc1NS(=O)(=O)c1ccc(C3(F)CCCC3)nc1)CCN(C)CC2` [Example 11, 6-(1-fluorocyclopentyl)-N-(2-methoxy-7-methyl-6,7,8,9-tetrahydro-5H-pyrido[2,3-d]azepin-3-yl)pyridine-3-sulfonamide]: the negative logarithm of the Ki (pKi) in experiment [1] is 6.97; in experiment [2], 8.48.
As to `CCCN1CCc2cc(NS(=O)(=O)c3ccc(C(C)C)cc3)c(OC(F)F)nc2CC1` [Example 12, N-[2-(Difluoromethoxy)-7-propyl-6,7,8,9-tetrahydro-5H-pyrido[2,3-d]azepin-3-yl]-4-(propan-2-yl)benzenesulfonamide], the negative-log Ki (pKi) is 6.59 in experiment [1] and 6.55 in experiment [2].
With `CCN1CCc2nc(OC)c(NS(=O)(=O)c3ccc(C)cc3)cc2C(C)C1` (stereo not shown) [Example 13, N-(7-ethyl-2-methoxy-5-methyl-6,7,8,9-tetrahydro-5H-pyrido[2,3-d]azepin-3-yl)-4-methylbenzenesulfonamide], the negative-log Ki (pKi) is 6.03 in experiment [1] and 7.97 in experiment [2].
Turning to `CCOc1ccc(S(=O)(=O)Nc2cc3c(nc2OC(C)C)CCN(CC)CC3)cc1` [Example 14, 4-Ethoxy-N-[7-ethyl-2-(propan-2-yloxy)-6,7,8,9-tetrahydro-5H-pyrido[2,3-d]azepin-3-yl]benzenesulfonamide], the negative logarithm of the Ki (pKi) in experiment [1] is 7.44; in experiment [2], 8.42.
Take `COc1nc2c(cc1NS(=O)(=O)c1ccc(OC3CCCC3)nc1)CCN(C)CC2` [Example 15, 6-(cyclopentyloxy)-N-(2-methoxy-7-methyl-6,7,8,9-tetrahydro-5H-pyrido[2,3-d]azepin-3-yl)pyridine-3-sulfonamide]: the results for the pKi in experiment [1] and in experiment [2] were 7.88 and 9.15, respectively.
Turning to `COc1nc2c(cc1NS(=O)(=O)c1ccc(C3CCCC3)nc1)CCN(C)CC2` [Example 16, 6-cyclopentyl-N-(2-methoxy-7-methyl-6,7,8,9-tetrahydro-5H-pyrido[2,3-d]azepin-3-yl)pyridine-3-sulfonamide], the results for the pKi in experiment [1] and in experiment [2] were 6.91 and 8.62, respectively.
Taken in the same sequence, the figures for `COc1nc2c(cc1NS(=O)(=O)c1ccc(OC3CCC3)nc1)CCN(C)CC2` [Example 17, 6-(cyclobutyloxy)-N-(2-methoxy-7-methyl-6,7,8,9-tetrahydro-5H-pyrido[2,3-d]azepin-3-yl)pyridine-3-sulfonamide] were 7.04 and 8.71.
In the case of `COc1nc2c(cc1NS(=O)(=O)c1cnc(OC3CCCC3)nc1)CCN(C)CC2` [Example 18, 2-(cyclopentyloxy)-N-(2-methoxy-7-methyl-6,7,8,9-tetrahydro-5H-pyrido[2,3-d]azepin-3-yl)pyrimidine-5-sulfonamide], the negative-log Ki (pKi) was 6.85 in experiment [1] and 8.45 in experiment [2].
For the compound `COc1nc2c(cc1NS(=O)(=O)c1ccc(C3(F)CCCCC3)nc1)CCN(C)CC2` [Example 19, 6-(1-fluorocyclohexyl)-N-(2-methoxy-7-methyl-6,7,8,9-tetrahydro-5H-pyrido[2,3-d]azepin-3-yl)pyridine-3-sulfonamide], the pKi is 7.04 in experiment [1] and 8.56 in experiment [2].
For `CCN1CCc2cc(NS(=O)(=O)c3ccc([C@H]4C[C@H](OCCF)C4)cc3)c(OC)nc2CC1` [Example 20, N-(7-ethyl-2-methoxy-6,7,8,9-tetrahydro-5H-pyrido[2,3-d]azepin-3-yl)-4-[trans-3-(2-fluoroethoxy)cyclobutyl]benzenesulfonamide], the pKi was 6.94 in experiment [1] and 8.76 in experiment [2].
Consider `CCO[C@H]1C[C@@H](c2ccc(S(=O)(=O)Nc3cc4c(nc3OC)CCN(C)CC4)cc2)C1` [Example 21, 4-(cis-3-ethoxycyclobutyl)-N-(2-methoxy-7-methyl-6,7,8,9-tetrahydro-5H-pyrido[2,3-d]azepin-3-yl)benzenesulfonamide], for which the negative-log Ki (pKi) in experiment [1] was 7.59; in experiment [2], 9.01.
`CCO[C@H]1C[C@H](c2ccc(S(=O)(=O)Nc3cc4c(nc3OC)CCN(C)CC4)cc2)C1` [Example 22, 4-(trans-3-ethoxycyclobutyl)-N-(2-methoxy-7-methyl-6,7,8,9-tetrahydro-5H-pyrido[2,3-d]azepin-3-yl)benzenesulfonamide]: the negative-log Ki (pKi) in experiment [1] is 7.52; in experiment [2], 8.58.
`CCN1CCc2cc(NS(=O)(=O)c3ccc([C@]4(O)C[C@@H](OC)C4)nc3)c(OC)nc2CC1` [Example 23, N-(7-ethyl-2-methoxy-6,7,8,9-tetrahydro-5H-pyrido[2,3-d]azepin-3-yl)-6-(cis-1-hydroxy-3-methoxycyclobutyl)pyridine-3-sulfonamide]: the negative logarithm of the Ki (pKi) in experiment [1] was below 5.34; in experiment [2], below 6.34.
As for `COc1nc2c(cc1NS(=O)(=O)c1cnc(C3CCC3)c(F)c1)CCN(C)CC2` [Example 24, 6-cyclobutyl-5-fluoro-N-(2-methoxy-7-methyl-6,7,8,9-tetrahydro-5H-pyrido[2,3-d]azepin-3-yl)pyridine-3-sulfonamide], the pKi in experiment [1] was 6.63; in experiment [2] it was 8.38.
`COc1nc2c(cc1NS(=O)(=O)c1ccc([C@]3(F)C[C@@H](C)C3)nc1)CCN(C)CC2` [Example 25, 6-(cis-1-fluoro-3-methylcyclobutyl)-N-(2-methoxy-7-methyl-6,7,8,9-tetrahydro-5H-pyrido[2,3-d]azepin-3-yl)pyridine-3-sulfonamide]: the pKi was 6.27 in experiment [1] and 8.29 in experiment [2].
For `CCCN1CCc2cc(NS(=O)(=O)c3ccc(C)cc3)c(OC)nc2CC1` [Example 26, N-(2-methoxy-7-propyl-6,7,8,9-tetrahydro-5H-pyrido[2,3-d]azepin-3-yl)-4-methylbenzenesulfonamide], the values for the negative logarithm of the Ki (pKi) in experiment [1] and in experiment [2] were 6.28 and 8.61, respectively.
Taken in the same sequence, the figures for `COc1nc2c(cc1NS(=O)(=O)c1ccc(Cl)cc1)CCN(C)CC2` [Example 27, 4-chloro-N-(2-methoxy-7-methyl-6,7,8,9-tetrahydro-5H-pyrido[2,3-d]azepin-3-yl)benzenesulfonamide] were 6.40 and 8.49.
Taken in the same sequence, the figures for `CCOc1ccc(S(=O)(=O)Nc2cc3c(nc2OC)CCN(C)CC3)cc1` [Example 28, 4-ethoxy-N-(2-methoxy-7-methyl-6,7,8,9-tetrahydro-5H-pyrido[2,3-d]azepin-3-yl)benzenesulfonamide] were 6.91 and 8.63.
Consider `CCOc1ccc(S(=O)(=O)Nc2cc3c(nc2OC)CCN(CCOC)CC3)cc1` [Example 29, 4-ethoxy-N-[2-methoxy-7-(2-methoxyethyl)-6,7,8,9-tetrahydro-5H-pyrido[2,3-d]azepin-3-yl]benzenesulfonamide], for which the pKi in experiment [1] is 5.97; in experiment [2], 7.95.
Turning to `CCN1CCc2cc(NS(=O)(=O)c3ccc(C4CC4)cc3)c(OC)nc2CC1` [Example 30, 4-cyclopropyl-N-(7-ethyl-2-methoxy-6,7,8,9-tetrahydro-5H-pyrido[2,3-d]azepin-3-yl)benzenesulfonamide], the pKi is 7.26 in experiment [1] and 9.05 in experiment [2].
`COc1nc2c(cc1NS(=O)(=O)c1ccc3c(c1)CCCO3)CCN(C)CC2` [Example 31, N-(2-methoxy-7-methyl-6,7,8,9-tetrahydro-5H-pyrido[2,3-d]azepin-3-yl)-3,4-dihydro-2H-chromene-6-sulfonamide]: the pKi is 6.25 in experiment [1] and 8.91 in experiment [2].
Consider `COc1nc2c(cc1NS(=O)(=O)c1ccc(C(C)OC)cc1)CCN(C)CC2` (stereo not shown) [Example 32, 4-(1-methoxyethyl)-N-(2-methoxy-7-methyl-6,7,8,9-tetrahydro-5H-pyrido[2,3-d]azepin-3-yl)benzenesulfonamide], for which the pKi is 6.69 in experiment [1] and 8.98 in experiment [2].
Regarding `COc1nc2c(cc1NS(=O)(=O)c1ccc3c(c1)CC(C)(C)O3)CCN(C)CC2` [Example 34, N-(2-methoxy-7-methyl-6,7,8,9-tetrahydro-5H-pyrido[2,3-d]azepin-3-yl)-2,2-dimethyl-2,3-dihydro-1-benzofuran-5-sulfonamide], the negative logarithm of the Ki (pKi) in experiment [1] is 7.58; in experiment [2], 9.19.
Taken in the same sequence, the figures for `CCN1CCc2cc(NS(=O)(=O)c3ccc(C)c(F)c3)c(OC)nc2CC1` [Example 35, N-(7-ethyl-2-methoxy-6,7,8,9-tetrahydro-5H-pyrido[2,3-d]azepin-3-yl)-3-fluoro-4-methylbenzenesulfonamide] were 6.00 and 8.43.
